In patent publication US20120093809A1, “USE OF ALKANOYL L-CARNITINE IN COMBINATION WITH CHEMOTHERAPEUTIC AGENTS FOR THE TREATMENT OF NEOPLASMS” (priority 2008, published 2012):
pIC50: −log10 of the molar value.

What was measured:
[1] = test system: A549 non-small cell lung carcinoma; assay: Antitumor activity of acetyl L-carnitine in combination with cisplatin, s.c. xenograft; format: in vivo
Procedure: Treatments started six days after cancer injection.
(§1) When tumors reached a volume of about 1 cm3, mice were sacrificed by cervical dislocation.
(§2) Body weight recording was carried out through the study.

[2] = test system: NCI-H460 NSCLC; assay: Antitumor activity of cisplatin in combination with acetyl L-carnitine, s.c. xenograft; format: in vivo; conditions: cisplatin ip q3-4dx5, alone or with acetyl L-carnitine 200 mg/kg p.o. qdx5/wx4w
Procedure: (§3) Treatments started three days after tumor injection.
Mice were subdivided (12 mice/group) in the following experimental groups:
Acetyl L-carnitine was administered immediately before the drug given in combination.
(§4) To evaluate the antitumor activity, tumor diameters were measured with a Vernier caliper.
(§5) When tumors reached a volume of 1-2 cm^3, mice were sacrificed by cervical dislocation. Body weight recording was carried out through the study and mortality was noted.

[3] = test system: NCI-H460 non-small cell lung carcinoma; assay: Antitumor activity of cisplatin in combination with L-carnitine, s.c. xenograft; format: in vivo; conditions: cisplatin 4 mg/kg ip, alone or with L-carnitine 200 mg/kg po
Procedure: as §3, §4, §5

[4] = test system: PC3 prostate carcinoma cells (p53 null); assay: Antiproliferative activity of cisplatin with and without acetyl L-carnitine, MTT assay; format: cell-based; conditions: acetyl L-carnitine 10 mM where combined, 72 h of exposure, 0.1% FBS
Procedure: (§6) Moreover, the activity was also evaluated on two prostate tumor cell lines with p53 wild-type (LnCaP) or p53 null (PC3). […] The number of surviving cells was finally determined by the tetrazolium salt (MTT) assay, as described by Hansen M B et al. (Re-examination and further development of a precise and rapid dye method for measuring cell growth/cell kill. J. Immunol. Methods 119: 203-10, 1989). […] In this case the statistical comparison was performed by Mann-Whitney test.
(§7) To test the effects of the compounds on cell growth, tumor cells were seeded in 96-well tissue culture plates at approximately 10% confluence and were allowed to attach and recover for at least 24 h. Tumor cells were exposed to compounds for 72 h or 6 days in 0.1% FBS at 37° C., then medium culture was removed and 100 μL/well of medium were added containing 25 μL/well of a solution 5 mg/mL MTT (final 1 mg/mL). Plates were kept at. 37° C. in incubator with 5% CO2 for 2 h for the formation of blu chrystals. The supernatant was removed and 100 μL/well of lysant medium were added. Plates were kept under stirring for 60 min. The survival cell was determined as optical density by a Multiskan spectrofluorimeter at 570 nm.

[5] = test system: SJSA-1 (with amplification of mdm2) osteosarcoma cells; assay: as above; format: cell-based; conditions: acetyl L-carnitine 10 mM where combined, 72 h of exposure followed by 72 h of recovery, 0.1% FBS
Procedure: as §6, §7

[6] = test system: NCI-H1650 non-small cell lung carcinoma cells; assay: as above; format: cell-based; conditions: acetyl L-carnitine 10 mM where combined, 6 days of exposure, 0.1% FBS
Procedure: as §6, §7

[7] = test system: LnCaP prostate carcinoma cells (p53 wild-type); assay: as above; format: cell-based; conditions: acetyl L-carnitine 10 mM where combined, 6 days of exposure, 0.1% FBS
Procedure: as §6, §7

[8] = test system: IGROV-1 ovarian carcinoma; format: in vivo, CD1 nude mice; conditions: day +41; cisplatin 4 mg/kg ip, alone or with acetyl L-carnitine 200 mg/kg po
Procedure: (§8) Treatments started three days after cancer injection.
When tumors reached a volume of about 1-2 cm^3, mice were sacrificed by cervical dislocation.
as §2

[9] = test system: A2780/Dx multidrug-resistant ovarian carcinoma cells; assay: Antiproliferative activity of cisplatin with and without acetyl L-carnitine, MTT assay; format: cell-based; conditions: acetyl L-carnitine 10 mM where combined, 6 days of exposure, 0.1% FBS
Procedure: as §6
as §7, with “Tumor cells were exposed to compounds for 72 h or 6 days in 0.1% FBS at 37° C., then medium culture was removed and 100 μL/well of medium were added containing 25 μL/well of a solution 5 mg/mL MTT (final 1 mg/mL).” left out

[10] = test system: NCI-H460 non-small cell lung carcinoma cells; assay: as above; format: cell-based; conditions: acetyl L-carnitine 10 mM where combined, 72H of exposure, 0.1% FBS
Procedure: as §6
as §7, with “Tumor cells were exposed to compounds for 72 h or 6 days in 0.1% FBS at 37° C., then medium culture was removed and 100 μL/well of medium were added containing 25 μL/well of a solution 5 mg/mL MTT (final 1 mg/mL).” left out

[11] = test system: NCI-H1650 non-small cell lung carcinoma; assay: Antitumor activity of acetyl L-carnitine in combination with cisplatin, s.c. xenograft; format: in vivo
Procedure: Treatments started eleven days after cancer injection.
as §1, §2

[12] = test system: SW620 colon carcinoma with mutant p53; format: in vivo, CD1 nude mice; conditions: day +20; cisplatin 4 mg/kg ip, alone or with acetyl L-carnitine 200 mg/kg po
Procedure: as §8
When tumors reached a volume of about 1 cm^3, mice were sacrificed by cervical dislocation.
as §2

[13] = test system: lung metastases; conditions: cisplatin alone, 6 to 8 mg/kg; cited from earlier work
[14] = cisplatin 4 mg/kg ip, alone or with acetyl L-carnitine 200 mg/kg po
[15] = day +41, cisplatin 4 mg/kg ip, alone or with acetyl L-carnitine 200 mg/kg po

SMILES: N.N.[Cl][Pt][Cl] [Cisplatin]
- BWL % max ([1]; cisplatin 4 mg/kg ip q3-4d/wx3w, alone or with acetyl L-carnitine 200 mg/kg po qdx5/wx4w): 8%
- TV ± SE [1, 14]: 208 ± 55 mm^3
- TVI % ± SE [1, 14]: 49 ± 12%
- LCK (1 cm^3) ([2]; DT = 2.6 days): 0.6
- TVI % +31 ([2]; day +31): 41%
- TV ± SE +32 ([3]; day +32): 345 ± 90 mm^3
- Leth. ([3]; dead/total mice): 0/9
- pIC50 ([4]; IC50±SD of cisplatin): 5.33
- CELL SURVIVAL % ± SE ([4]; cisplatin 625 nM): 97%
- CELL SURVIVAL % ± SE ([4]; cisplatin 1250 nM): 89%
- CELL SURVIVAL % ± SE ([4]; cisplatin 2500 nM): 76%
- CELL SURVIVAL % ± SE ([4]; cisplatin 5000 nM): 52%
- CELL SURVIVAL % ± SE ([4]; cisplatin 10000 nM): 26%
- pIC50 ([5]; IC50±SD of cisplatin): 5.49
- CELL SURVIVAL % ± SE ([5]; cisplatin 312 nM): 100 ± 3.0%
- CELL SURVIVAL % ± SE ([5]; cisplatin 625 nM): 90 ± 6.0%
- CELL SURVIVAL % ± SE ([5]; cisplatin 1250 nM): 90 ± 2.0%
- CELL SURVIVAL % ± SE ([5]; cisplatin 2500 nM): 64 ± 2.0%
- CELL SURVIVAL % ± SE ([5]; cisplatin 5000 nM): 35 ± 1.0%
- pIC50 ([6]; IC50±SD of cisplatin): 5.82
- CELL SURVIVAL % ± SE ([6]; cisplatin 78 nM): 98 ± 4.0%
- CELL SURVIVAL % ± SE ([6]; cisplatin 312 nM): 92 ± 2.0%
- CELL SURVIVAL % ± SE ([6]; cisplatin 625 nM): 81 ± 3.0%
- CELL SURVIVAL % ± SE ([6]; cisplatin […]): 95 ± 1.0%
- pIC50 ([7]; IC50±SD of cisplatin): 5.11
- CELL SURVIVAL % ± SE ([7]; cisplatin 1250 nM): 92 ± 2%
- CELL SURVIVAL % ± SE ([7]; cisplatin 2500 nM): 74 ± 5%
- CELL SURVIVAL % ± SE ([7]; cisplatin 5000 nM): 67 ± 2%
- CELL SURVIVAL % ± SE ([7]; cisplatin 10000 nM): 51 ± 3%
- TV ± SE +41 [8]: 231 ± 55 mm^3
- TVI % ± SE +41 [8]: 35 ± 8%
- pIC50 ([9]; IC50±SD of cisplatin): 6.14
- CELL SURVIVAL % ± SE ([9]; cisplatin 625 nM): 62 ± 2.0%
- CELL SURVIVAL % ± SE ([9]; cisplatin 1250 nM): 40 ± 1.0%
- CELL SURVIVAL % ± SE ([9]; cisplatin 2500 nM): 31 ± 1.0%
- CELL SURVIVAL % ± SE ([9]; cisplatin […]): 86 ± 2.0%
- pIC50 ([10]; IC50±SD of cisplatin): 6.40
- CELL SURVIVAL % ± SE ([10]; cisplatin 39 nM): 96 ± 2.4%
- CELL SURVIVAL % ± SE ([10]; cisplatin 78 nM): 93 ± 4.0%
- CELL SURVIVAL % ± SE ([10]; cisplatin 312 nM): 61 ± 2.0%
- CELL SURVIVAL % ± SE ([10]; cisplatin 625 nM): 39 ± 1.0%
- CELL SURVIVAL % ± SE ([10]; cisplatin 1250 nM): 24 ± 0.7%
- CELL SURVIVAL % ± SE ([10]; cisplatin […]): 82 ± 2.0%
- BWL % max ([11]; cisplatin 4 mg/kg ip q3-4d/wx3w, alone or with acetyl L-carnitine 200 mg/kg po qdx5/wx5w): 10%
- TV ± SE +41 [11, 15]: 206 ± 32 mm^3
- TVI % ± SE +41 [11, 15]: 23 ± 4%
- TV ± SE +20 [12]: 244 ± 45 mm^3
- TVI % ± SE +20 [12]: 55 ± 10%
- number of lung metastases [13]: significantly reduced the number of lung metastases
